According to US7235256B2, “Method of preventing parturient hypocalcemia in animals and compositions used therein” (RJ Innovation, priority 1999, dated 2007):

How the values were obtained:
non-lactating (dry) cows = experiment: EDTA-infusion test for resistance to hypocalcemia; format: in vivo, cow; details: 8 EDTA-tests at 10 days intervals, normal = ionised blood calcium above 1 mmol/l
Text: To investigate the induction of hypocalcemia by intravenous infusion of EDTA in cows, 6 non-lactating (dry) cows were used in this study. Three of these cows were untreated (cow Nos. 168, 169 and 170) and the other three cows (cow Nos. 172, 175 and 176) had been subjected to a pre-treatment consisting of daily doses of anionic salts (Wang and Beede, 1992). This pre-treatment is known to be effective in preventing milk fever. The latter cows were rumen fistulated to facilitate precise daily dosages of the anionic salts.
All cows were tested for resistance to hypocalcemia by the EDTA-infusion technique. A total of 8 EDTA-tests were performed per cow according to the standardised method of Mellau et al. (1998), at 10 days intervals. With the standardised test, infusion of EDTA was performed until the cow went down involuntarily, due to muscle weakness caused by the induced hypocalcemia. The time taken from this point and until the cow regained normal blood calcium concentration, which is defined as an ionised blood calcium value above 1 mmol/l, was recorded. This time is considered to represent the cows' calcium mobilisation rate and therefore also the cows' ability to resist hypocalcemia. The infusion periods varied between individual cows, but were typically in the range of 2–4 hours. […]

dairy cows = experiment: Repeated oral zinc oxide administration, serum calcium response; format: in vivo, cow; details: lactating cows
Description: Six dairy cows were used in this study: Two lactating cows and two dry cows were treated with zinc oxide by mouth at 120 mg/kg body weight, whereas two lactating cows served as untreated controls. Four doses of zinc oxide were given to the treated cows at one-week intervals. Venous blood samples were taken and serum stored at −37° C. for later total calcium determinations. For this purpose blood samples were taken daily from all six cows one hour after morning feeding. Extra samples were taken 5, 11, 23 and 35 hours after zinc oxide administration.

[1] = zinc oxide by mouth 120 mg/kg body weight

## O=C(O)CN(CCN(CC(=O)O)CC(=O)O)CC(=O)O [EDTA, ethylenediaminetetraacetic acid]
non-lactating (dry) cows
  time to regain normal blood calcium concentration (recovery time) after EDTA infusion: greatly improved

## [O]=[Zn] [zinc oxide]
Dairy cows; four doses at one-week intervals
  change of calcium balance response with number of doses: less and less affected
Dairy cows; [1]
  minimum serum calcium concentration: 1.4 to 1.6 mmol/L
  time of minimum serum calcium after administration: about 24 hours
